Broadly, the IC50 is the concentration that gives 50% inhibition.

Each structure is given as a SMILES string.

Test [1] deals with T1, FAK (Homo sapiens, UniProt Q05397). The test is described as follows: Cell-based capture ELISA for inhibition of FAK autophosphorylation [pY397] in MiaPaCa2 cells. How it is done: Cell-Based Assays for Inhibition of FAK Autophosphorylation: MiaPaCa2 and U87MG
ELISA kit from Invitrogen (KHO0441).
Reagents Provided in Biosource FAK [pY397]
The cells were then suspended in cell assay medium.

In test [2] the target is T1, FAK. The test is described as follows: biochemical.
[3] abbreviates: MIA-PaCa2 cells, + 50% mouse plasma (Table 2), read-out: Mean FAK Cell Mechanistic IC50 + 50% mP MIA-PaCa2.
Setting [4] is: MIA-PaCa2 cells on fibronectin, 2 h, no plasma, read-out: Mean FAK Cell Mechanistic IC50 MIA-PaCa2.
Setting [5] is: MIA-PaCa2 cells, + 50% human plasma, read-out: Mean FAK Cell Mechanistic IC50 + 50% hP MIA-PaCa2.

T1 sequence (Q05397 whole entry): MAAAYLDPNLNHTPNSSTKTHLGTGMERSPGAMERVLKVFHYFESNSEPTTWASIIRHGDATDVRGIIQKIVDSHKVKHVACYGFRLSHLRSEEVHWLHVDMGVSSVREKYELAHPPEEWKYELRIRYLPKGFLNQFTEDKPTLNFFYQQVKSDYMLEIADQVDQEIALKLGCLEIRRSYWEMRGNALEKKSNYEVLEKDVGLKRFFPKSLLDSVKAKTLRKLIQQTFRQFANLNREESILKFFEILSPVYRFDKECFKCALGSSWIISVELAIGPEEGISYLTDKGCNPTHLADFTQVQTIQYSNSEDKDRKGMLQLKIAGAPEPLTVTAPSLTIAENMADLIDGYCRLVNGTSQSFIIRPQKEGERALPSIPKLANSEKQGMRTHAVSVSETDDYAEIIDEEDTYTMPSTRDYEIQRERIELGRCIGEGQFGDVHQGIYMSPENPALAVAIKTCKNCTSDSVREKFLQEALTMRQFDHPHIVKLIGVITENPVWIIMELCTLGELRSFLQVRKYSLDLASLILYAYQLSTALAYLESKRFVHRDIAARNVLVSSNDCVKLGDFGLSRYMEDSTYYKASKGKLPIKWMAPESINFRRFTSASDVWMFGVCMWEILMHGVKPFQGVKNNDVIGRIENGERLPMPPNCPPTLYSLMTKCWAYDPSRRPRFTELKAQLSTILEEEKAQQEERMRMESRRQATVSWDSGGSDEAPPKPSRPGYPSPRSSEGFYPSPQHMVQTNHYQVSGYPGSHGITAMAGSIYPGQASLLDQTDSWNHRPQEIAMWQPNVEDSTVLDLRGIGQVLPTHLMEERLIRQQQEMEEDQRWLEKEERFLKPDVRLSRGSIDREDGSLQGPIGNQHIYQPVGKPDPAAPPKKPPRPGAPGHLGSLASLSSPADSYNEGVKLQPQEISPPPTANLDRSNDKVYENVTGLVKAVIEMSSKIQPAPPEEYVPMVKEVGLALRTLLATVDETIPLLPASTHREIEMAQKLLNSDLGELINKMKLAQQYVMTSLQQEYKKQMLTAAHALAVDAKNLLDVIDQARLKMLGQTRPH

On to `CCOP(=O)(OCC)C1CCC(c2ccc(Nc3nc(Nc4ccccc4OC)ncc3C(F)(F)F)c3c2CN(C)C3=O)CC1` (mixture of isomers) [Example 193, Diethyl {4-[7-({2-[(2-methoxyphenyl)amino]-5-(trifluoromethyl)pyrimidin-4-yl}amino)-2-methyl-1-oxo-2,3-dihydro-1H-isoindol-4-yl]cyclohexyl}phosphonate], for which the IC50 at FAK [1] (MIA-PaCa2 cells, + 50% mouse plasma (Table 3), read-out: Mean FAK Cell Mechanistic IC50 + 50% mP MIA-PaCa2) was below 1000 nM; at FAK [2] it was below 1000 nM.

With `CCOP(=O)(Cc1ccc(Nc2ncc(C(F)(F)F)c(Nc3ccc([C@H]4CC[C@H](O)CC4)c4c3C(=O)N(C)C4)n2)cc1)OCC` (stereo in doubt) [Example 92, Diethyl (4-{[4-{[7-(trans-4-hydroxycyclohexyl)-2-methyl-3-oxo-2,3-dihydro-1H-isoindol-4-yl]amino}-5-(trifluoromethyl)pyrimidin-2-yl]amino}benzyl)phosphonate], the IC50 at FAK [1] (setting [3]) and on FAK [2] was below 1000 nM throughout.

Turning to `CCOP(=O)(Cc1ccccc1Nc1ncc(C(F)(F)F)c(NCc2cccnc2N(C)S(C)(=O)=O)n1)OCC` [Example 3, Diethyl [2-({4-[({2-[methyl(methylsulfonyl)amino]pyridin-3-yl}methyl)amino]-5-(trifluoromethyl)pyrimidin-2-yl}amino)benzyl]phosphonate], the results for the IC50 on FAK [1] (setting [4]), on FAK [1] (setting [5]) and against FAK [2] were above 10000 nM, above 10000 nM and below 1000 nM, respectively.

Consider `CC(C)P(=O)(Cc1ccc(Nc2ncc(C(F)(F)F)c(NCc3cccnc3N(C)S(C)(=O)=O)n2)cc1)C(C)C` [Example 8, N-[3-({[2-({4-[(Dipropan-2-ylphosphoryl)methyl]phenyl}amino)-5-(trifluoromethyl)pyrimidin-4-yl]amino}methyl)pyridin-2-yl]-N-methylmethanesulfonamide], for which the IC50 on FAK [1] (setting [4]), at FAK [1] (setting [5]), on FAK [1] (setting [3]) and at FAK [2] was below 1000 nM in each case.

As to `CC(C)P(=O)(Cc1cccc(Nc2ncc(C(F)(F)F)c(NCc3cccnc3N(C)S(C)(=O)=O)n2)c1)C(C)C` [Example 9, N-[3-({[2-({3-[(Dipropan-2-ylphosphoryl)methyl]phenyl}amino)-5-(trifluoromethyl)pyrimidin-4-yl]amino}methyl)pyridin-2-yl]-N-methylmethanesulfonamide], the IC50 at FAK [1] (setting [4]), on FAK [1] (setting [5]), at FAK [1] (setting [3]) and at FAK [2] was below 1000 nM each time.

As for `CCP(=O)(CC)Cc1ccc(Nc2ncc(C(F)(F)F)c(NCc3cccnc3N(C)S(C)(=O)=O)n2)cc1` [Example 10, N-[3-({[2-({4-[(diethylphosphoryl)methyl]phenyl}amino)-5-(trifluoromethyl)pyrimidin-4-yl]amino}methyl)pyridin-2-yl]-N-methylmethanesulfonamide], the IC50 at FAK [1] (setting [4]), on FAK [1] (setting [5]), at FAK [1] (setting [3]) and against FAK [2] was below 1000 nM in each case.

Regarding `CCP(=O)(CC)Cc1cccc(Nc2ncc(C(F)(F)F)c(NCc3cccnc3N(C)S(C)(=O)=O)n2)c1` [Example 11, N-[3-({[2-({3-[(Diethylphosphoryl)methyl]phenyl}amino)-5-(trifluoromethyl)pyrimidin-4-yl]amino}methyl)pyridin-2-yl]-N-methylmethanesulfonamide], the IC50 at FAK [1] (setting [4]), on FAK [1] (setting [5]), at FAK [1] (setting [3]) and against FAK [2] was below 1000 nM each time.

As to `CN(c1ncccc1CNc1nc(Nc2ccc(CP(C)(C)=O)cc2)ncc1C(F)(F)F)S(C)(=O)=O` [Example 12, N-[3-({[2-({4-[(Dimethylphosphoryl)methyl]phenyl}amino)-5-(trifluoromethyl)pyrimidin-4-yl]amino}methyl)pyridin-2-yl]-N-methylmethanesulfonamide], the IC50 was 1000 to 10000 nM at FAK [1] (setting [4]), 1000 to 10000 nM at FAK [1] (setting [5]), 1000 to 10000 nM at FAK [1] (setting [3]) and below 1000 nM against FAK [2].

For the compound `CN(c1ncccc1CNc1nc(Nc2cccc(CP(C)(C)=O)c2)ncc1C(F)(F)F)S(C)(=O)=O` [Example 13, N-[3-({[2-({3-[(Dimethylphosphoryl)methyl]phenyl}amino)-5-(trifluoromethyl)pyrimidin-4-yl]amino}methyl)pyridin-2-yl]-N-methylmethanesulfonamide], the IC50 on FAK [1] (setting [4]), on FAK [1] (setting [5]), at FAK [1] (setting [3]) and at FAK [2] was below 1000 nM each time.

In the case of `CN(c1ncccc1CNc1nc(Nc2ccc(P(C)(C)=O)cc2)ncc1C(F)(F)F)S(C)(=O)=O` [Example 14, N-[3-({[2-{[4-(Dimethylphosphoryl)phenyl]amino}-5-(trifluoromethyl)pyrimidin-4-yl]amino}methyl)pyridin-2-yl]-N-methylmethanesulfonamide], the IC50 at FAK [1] (setting [4]), on FAK [1] (setting [5]), at FAK [1] (setting [3]) and against FAK [2] was below 1000 nM each time.

On to `CN(c1ncccc1CNc1nc(Nc2cccc(P(C)(C)=O)c2)ncc1C(F)(F)F)S(C)(=O)=O` [Example 15, N-[3-({[2-{[3-(Dimethylphosphoryl)phenyl]amino}-5-(trifluoromethyl)pyrimidin-4-yl]amino}methyl)pyridin-2-yl]-N-methylmethanesulfonamide], for which the IC50 on FAK [1] (setting [4]), at FAK [1] (setting [5]), on FAK [1] (setting [3]) and against FAK [2] was below 1000 nM in each case.

Consider `CNC(=O)c1ccccc1Nc1nc(Nc2ccc(CP(C)(C)=O)cc2)ncc1C(F)(F)F` [Example 16, 2-{[2-({4-[(Dimethylphosphoryl)methyl]phenyl}amino)-5-(trifluoromethyl)pyrimidin-4-yl]amino}-N-methylbenzamide], for which the IC50 on FAK [1] (setting [4]), at FAK [1] (setting [5]), at FAK [1] (setting [3]) and against FAK [2] was below 1000 nM each time.

In the case of `CNC(=O)c1ccccc1Nc1nc(Nc2cccc(CP(C)(C)=O)c2)ncc1C(F)(F)F` [Example 17, 2-{2-[3-(Dimethylphosphinoylmethyl)phenylamino]-5-trifluoromethylpyrimidin-4-ylamino}-N-methylbenzamide], the concentration for half-maximal inhibition (IC50) at FAK [1] (setting [4]), at FAK [1] (setting [5]), at FAK [1] (setting [3]) and against FAK [2] was below 1000 nM in each case.

With `CNC(=O)c1ccccc1Nc1nc(Nc2ccc(P(C)(C)=O)cc2)ncc1C(F)(F)F` [Example 18, 2-{[2-{[4-(Dimethylphosphoryl)phenyl]amino}-5-(trifluoromethyl)pyrimidin-4-yl]amino}-N-methylbenzamide], the IC50 on FAK [1] (setting [4]), at FAK [1] (setting [5]), on FAK [1] (setting [3]) and against FAK [2] was below 1000 nM each time.

Take `CCOP(=O)(Cc1ccc(Nc2ncc(C(F)(F)F)c(Nc3ccccc3C(=O)NC)n2)cc1)OCC` [Example 20, diethyl (4-{[4-{[2-(methylcarbamoyl)phenyl]amino}-5-(trifluoromethyl)pyrimidin-2-yl]amino}benzyl)phosphonate]: the IC50 at FAK [1] (setting [4]), at FAK [1] (setting [5]) and against FAK [2] was below 1000 nM in each case.

In the case of `CCOP(=O)(OCC)C(C)(C)c1ccc(Nc2ncc(C(F)(F)F)c(Nc3ccccc3C(=O)NC)n2)cc1` [Example 21, Diethyl [2-(4-{[4-{[2-(methylcarbamoyl)phenyl]amino}-5-(trifluoromethyl)pyrimidin-2-yl]amino}phenyl)propan-2-yl]phosphonate], the IC50 at FAK [1] (setting [4]), on FAK [1] (setting [5]) and against FAK [2] was below 1000 nM in each case.

As to `CCOP(C)(=O)Cc1ccc(Nc2ncc(C(F)(F)F)c(Nc3ccccc3C(=O)NC)n2)cc1` (centres unmarked) [Example 22, Ethyl methyl(4-{[4-{[2-(methylcarbamoyl)phenyl]amino}-5-(trifluoromethyl)pyrimidin-2-yl]amino}benzyl)phosphinate], the IC50 on FAK [1] (setting [4]), on FAK [1] (setting [5]) and against FAK [2] was below 1000 nM each time.

As to `CCP(=O)(CC)Cc1cccc(Nc2ncc(C(F)(F)F)c(Nc3ccccc3C(=O)NC)n2)c1` [Example 23, 2-{[2-({3-[(Diethylphosphoryl)methyl]phenyl}amino)-5-(trifluoromethyl)pyrimidin-4-yl]amino}-N-methylbenzamide], the IC50 at FAK [1] (setting [4]), on FAK [1] (setting [5]), on FAK [1] (setting [3]) and against FAK [2] was below 1000 nM throughout.

Consider `CCP(=O)(CC)Cc1ccc(Nc2ncc(C(F)(F)F)c(Nc3ccccc3C(=O)NC)n2)cc1` [Example 24, 2-{[2-({4-[(Diethylphosphoryl)methyl]phenyl}amino)-5-(trifluoromethyl)pyrimidin-4-yl]amino}-N-methylbenzamide], for which the IC50 at FAK [1] (setting [4]), at FAK [1] (setting [5]), at FAK [1] (setting [3]) and against FAK [2] was below 1000 nM throughout.

Regarding `CCOP(=O)(Cc1ccc(Nc2ncc(C(F)(F)F)c(NCc3cccc(S(C)(=O)=O)c3)n2)cc1)OCC` [Example 25, diethyl (4-{[4-{[3-(methylsulfonyl)benzyl]amino}-5-(trifluoromethyl)pyrimidin-2-yl]amino}benzyl)phosphonate], the IC50 on FAK [1] (setting [3]) is 1000 to 10000 nM; on FAK [2], below 1000 nM.

Consider `CCCCOP(=O)(Cc1ccc(Nc2ncc(C(F)(F)F)c(NCc3cccnc3N(C)S(C)(=O)=O)n2)cc1)OCCCC` [Example 26, Dibutyl [4-({4-[({2-[methyl(methylsulfonyl)amino]pyridin-3-yl}methyl)amino]-5-(trifluoromethyl)pyrimidin-2-yl}amino)benzyl]phosphonate], for which the IC50 on FAK [1] (setting [4]) was below 1000 nM; at FAK [1] (setting [5]), below 1000 nM; at FAK [1] (setting [3]), 1000 to 10000 nM; on FAK [2] it was below 1000 nM.

Values taken from US9096624B2 (OSI Pharmaceuticals, LLC, priority 2009, dated 2015).
